# In paper PMC9020739, “Identification of a two-component regulatory system involved in antimicrobial peptide resistance in Streptococcus pneumoniae” (PLoS Pathogens, 2022):
# What was measured:
# [1] = test system: S. pneumoniae R6 ΔbceAB/tcs01; assay type: cell-based, Streptococcus pneumoniae; details: R6 strain; 2-fold broth dilution, Todd-Hewitt medium, 37°C, 15 h; two to four biological replicates, each technical duplicates
# Description: (§1) The MIC of various antimicrobial peptides for R6, R800 and D39 strains was determined by classical 2-fold broth dilution method. Cells were first grown in Todd-Hewitt medium at 37°C without agitation and in anaerobic conditions until the absorbance reaches approximatively 0.3. Complementation strains were grown with 0.5 μM ComS inducer until the appropriate OD. Cells were then diluted at final OD600nm = 0.002 in 96-well plates containing 300 μL of Todd-Hewitt medium (and 2 μM ComS inducer for the complementation strains) with serial dilutions of antimicrobial peptides. Pneumococcal growth was monitored by a microplate reader (TECAN) at 37°C without agitation. The absorbance was followed at 600 nm every 15 min for 15 h.
# S. pneumoniae R6 WT = assay type: cell-based, Streptococcus pneumoniae; details: R6 strain
# Description: as §1
# [2] = test system: S. pneumoniae D39 ΔbceAB/tcs01; assay type: cell-based, Streptococcus pneumoniae; details: D39 strain; 2-fold broth dilution, Todd-Hewitt medium, 37°C, 15 h; two to four biological replicates, each technical duplicates
# Description: as §1
# S. pneumoniae D39 Δtcs01 = assay type: cell-based, Streptococcus pneumoniae; details: D39 strain; 2-fold broth dilution, Todd-Hewitt medium, 37°C, 15 h; two to four biological replicates, each technical duplicates
# Description: as §1
# [3] = test system: S. pneumoniae R800 Δhk01-PcomX-hk01; assay type: cell-based, Streptococcus pneumoniae; details: R800 complementation strain, 2 μM ComS inducer; 2-fold broth dilution, Todd-Hewitt medium, 37°C, 15 h; at least biological triplicates, each technical duplicates
# Description: as §1
# [4] = test system: S. pneumoniae R800 bceAB-gfp; assay type: cell-based, Streptococcus pneumoniae; details: R800 strain; 2-fold broth dilution, Todd-Hewitt medium, 37°C, 15 h; at least biological triplicates, each technical duplicates
# Description: as §1
# S. pneumoniae D39 WT = assay type: cell-based, Streptococcus pneumoniae; details: D39 strain
# Description: as §1
# S. pneumoniae R800 Δhk01 = assay type: cell-based, Streptococcus pneumoniae; details: R800 strain; 2-fold broth dilution, Todd-Hewitt medium, 37°C, 15 h; at least biological triplicates, each technical duplicates
# Description: as §1
# [5] = test system: S. pneumoniae R800 ΔbceAB; assay type: cell-based, Streptococcus pneumoniae; details: R800 strain; 2-fold broth dilution, Todd-Hewitt medium, 37°C, 15 h; at least biological triplicates, each technical duplicates
# Description: as §1
# S. pneumoniae R6 Δtcs01 = assay type: cell-based, Streptococcus pneumoniae; details: R6 strain; 2-fold broth dilution, Todd-Hewitt medium, 37°C, 15 h; two to four biological replicates, each technical duplicates
# Description: as §1
# S. pneumoniae D39 ΔbceAB = assay type: cell-based, Streptococcus pneumoniae; details: D39 strain; 2-fold broth dilution, Todd-Hewitt medium, 37°C, 15 h; two to four biological replicates, each technical duplicates
# Description: as §1
# S. pneumoniae R6 ΔbceAB = assay type: cell-based, Streptococcus pneumoniae; details: R6 strain; 2-fold broth dilution, Todd-Hewitt medium, 37°C, 15 h; two to four biological replicates, each technical duplicates
# Description: as §1
# S. pneumoniae R800 WT = assay type: cell-based, Streptococcus pneumoniae; details: R800 strain; 2-fold broth dilution, Todd-Hewitt medium, 37°C, 15 h; at least biological triplicates, each technical duplicates
# Description: as §1
# [6] = test system: S. pneumoniae R800 ΔbceAB-Δhk01-PcomX-hk01; assay type: cell-based, Streptococcus pneumoniae; details: R800 complementation strain, 2 μM ComS inducer; 2-fold broth dilution, Todd-Hewitt medium, 37°C, 15 h; at least biological triplicates, each technical duplicates
# Description: as §1
# [7] = test system: bceAB and tcs01 genes in S. pneumoniae D39 WT; experiment: Quantification of gene expression by qPCR; assay type: cell-based, Streptococcus pneumoniae; details: D39 wild-type; vancomycin 375 ng/ml for 15 min; n = 8
# Description: S. pneumoniae D39 WT and Δtcs01 strains were routinely grown to OD600nm = 0.3 in THY. Then 1 μg/mL of bacitracin was added to the growth media for up to 30 min. Samples were taken at time points shown in the results section. Next, the cultures were mixed with RNA protect (Qiagen) at 1:1 ratio and incubated at room temperature for 5 min and centrifuged for 10 min at 3, 200 g at 4°C. The supernatant was decanted and the pellet was stored at -80°C. The bacteria were resuspended in 100 μL of sterile Tris-EDTA (TE), containing 15 mg/mL lysozyme (Sigma) then 20 μL of Proteinase K (20 mg/mL) (Roche) were added. The sample was vortexed 5 times for 10 sec at two-minutes intervals. Then 350 μL of lysis buffer from the Nucleospin RNA kit (Macherey-Nagel) were added to the sample with 3.5 μL of β-mercaptoethanol and 25 mg of glass beads (Sigma). The cells were lysed by continual vortexing for 5 min. The mRNA was extracted according to the manufacturer’s instructions. After elution, RNA samples were incubated with 5 μL of DNAse for 20 min at room temperature, then inactivated by heating for 70°C for 5 min. RNA concentration was measured using Nanovue (GE Healthcare). For cDNA synthesis 1 μg of RNA was generally used with the SuperScript III kit (Invitrogen) containing a reverse transcriptase, a set of primers, dNTPs, MgCl2 random hexamers and […] after the cDNA generation according to manufacturer’s instructions. Samples were then stored at -20°C. qPCR measurements were done with 2.5 μL of cDNA mixed with 1 μL (3 μM final) of forward and reverse primers, 5 μL iQ SYBR Green Supermix (BioRad) and 0.5 μL water using the CFX Connect Optical Module (BioRad) program as follows: 95°C for 3 min, then a repeat 40 times of 95°C for 10 sec, 55°C for 30 sec, and a fluorescence reading.
# [8] = molecular target: BceAB transporter from S. pneumoniae (Streptococcus pneumoniae, UniProt A0A0H2ZN40); assay type: biochemical; details: BceAB proteoliposomes; Fig 7B; triplicates, representative of at least two experiments
# Description: (§2) E. coli BL21(DE3) cells were transformed with pRSF-Duet1-BceAB WT, K48A or E170Q and selected on LB-agar plates containing 50 μg/mL kanamycin. One colony was inoculated into in 2L-baffled flasks containing 500 mL of 2YT medium and 50 μg/mL kanamycin and grown at 37°C, 180 rpm to OD600 of 0.6. Protein expression was induced by adding IPTG to a final concentration of 1 mM. Induction was performed overnight at 25°C and cells were harvested by centrifugation at 7,000 g for 20 min.
# (§3) Cells were resuspended in buffer A (HEPES-NaOH 100 mM pH 8.0, NaCl 150 mM) and lysed by passaging them three times through a cell disruptor (Microfluidizer, Microfluidics) at 18,000 psi (or 1,24 x 108 Pa). Undisrupted cells and cell debris were removed by centrifugation at 15,000 x g for 30 min at 4°C. Membranes were harvested from the supernatant after ultracentrifugation at 150,000 x g for 1 h at 4°C. Membranes were resuspended in 20 mL of buffer A and centrifuged once again at 150,000 x g for 1 h at 4°C. Membrane pellets were homogenized in buffer HEPES-NaOH 100 mM pH 8.0, NaCl 150 mM and 20% glycerol, and stored at -80°C.
# (§4) For the purification of BceAB, membranes from 0,5 L cell culture were diluted in buffer B (100 mM d’HEPES-NaOH pH 8, 150 mM NaCl, 10% glycerol) to a protein concentration of 4 mg/mL and solubilized with 0.5% (w/v) LMNG for 2 h at 4°C. After ultracentrifugation at 150,000 x g for 1 h at 4°C, the supernatant containing solubilized proteins was diluted four times using buffer B and loaded on Ni^2+-charged immobilized metal-ion affinity chromatography (IMAC) column (1 mL HisTrap HP, Cytiva). The column was washed with 10 mL of buffer B containing 0.005% (w/v) LMNG and 20 mM of imidazole. The column was further washed with the same buffer until OD280nm reached basal levels. BceAB was eluted by buffer B containing 0.005% (w/v) LMNG and an imidazole gradient from 20 to 500 mM of imidazole. Purified BceAB was dialyzed into buffer B containing 0.005% (w/v) LMNG and stored at -80°C.
# (§5) The proteoliposomes were prepared as previously described for the transporter BmrA [50]. Proteoliposomes were loaded on sucrose gradient with different layers of 400 μL of 50 mM HEPES-KOH pH 8.0 buffer containing 30, 20, 15 or 10% of sucrose. One mL of proteoliposomes was loaded on the top of the sucrose gradient and ultra-centrifuged at 200,000 x g for 12 h at 4°C. Proteoliposomes were typically collected from the 15% layer and were loaded on SDS-PAGE to analyze and quantify the presence of BceAB by using a standard-curve of purified BceAB and ImageJ.
# (§6) These activities were performed as previously described.
# [9] = test system: Nc1ncnc2c1ncn2[C@@H]1O[C@H](COP(=O)(O)OP(=O)(O)OP(=O)(O)O)[C@@H](O)[C@H]1O; experiment: purified protein, by the assay type; assay type: biochemical, Streptococcus pneumoniae; details: other: ATPase/GTPase activity as a function of nucleotide concentration, fitted with positive cooperativity; proteoliposomes; pH 8.0
# Description: as §2, §3, §4, §5, §6
# [10] = test system: Nc1nc2c(ncn2[C@@H]2O[C@H](COP(=O)(O)OP(=O)(O)OP(=O)(O)O)[C@@H](O)[C@H]2O)c(=O)[nH]1; experiment: purified protein, by the assay type; assay type: biochemical, Streptococcus pneumoniae; details: other: ATPase/GTPase activity as a function of nucleotide concentration, fitted with positive cooperativity; proteoliposomes; pH 8.0
# Description: as §2, §3, §4, §5, §6
# [11] = test system: S. pneumoniae R6 WT and mutant strains; experiment: Susceptibility to HNP-1 (colony counts); assay type: cell-based, Streptococcus pneumoniae; details: R6 WT versus mutant strains, 5, 10 or 20 μg/ml, 30 min, 1 h or 2 h, 37°C, preliminary work (S7 Fig)
# Description: Bacterial cells were routinely grown until OD600nm = 0.3 in THY and 5 mL of culture were centrifuged for 10 min at 5,000 g at 4°C. The pellet was resuspended in 5 ml of sterile PBS buffer and diluted twice at 1/100. 200 μl of the final dilution was incubated for 30 min, 1 h or 2 h at 37°C, 5% CO2 in 96-well plate with 5, 10 or 20 μg/ml of hNP1. Next, 10 μl from the final dilution (control cells at time zero in the absence of HNP-1) and the 96-well plate (cells incubated with HNP1) were plated onto pre-cast THY-agar medium supplemented with 4% defibrinated horse blood and incubated overnight at 37°C, […]. The next day, colonies were counted.
molecule,measurement,setting,value
CN[C@H](CC(C)C)C(=O)N[C@H]1C(=O)N[C@@H](CC(N)=O)C(=O)N[C@H]2C(=O)N[C@H]3C(=O)N[C@H](C(=O)N[C@H](C(=O)O)c4cc(O)cc(O)c4-c4cc3ccc4O)[C@H](O)c3ccc(c(Cl)c3)Oc3cc2cc(c3O[C@@H]2O[C@H](CO)[C@@H](O)[C@H](O)[C@H]2O[C@H]2C[C@](C)(N)[C@H](O)[C@H](C)O2)Oc2ccc(cc2Cl)[C@H]1O [vancomycin],"Minimum Inhibitory Concentration, ΔbceAB/tcs01",[1],0.5 µg/mL
same,"Minimum Inhibitory Concentration, WT","S. pneumoniae R6 WT; 2-fold broth dilution, Todd-Hewitt medium, 96-well plates, start OD600 0.002, 37°C, A600 followed 15 h, two to four biological replicates, each technical duplicates",0.5 µg/mL
same,Fold sensitivity displayed by the KO strains,S. pneumoniae R6 WT; KO strains versus WT MIC,1
same,"Minimum Inhibitory Concentration, ΔbceAB/tcs01",[2],0.25 µg/mL
same,"Minimum Inhibitory Concentration, Δtcs01",S. pneumoniae D39 Δtcs01,0.25 µg/mL
same,"MIC, Δhk01-PcomX-hk01",[3],0.25 µg/mL
same,"MIC, bceAB-gfp",[4],0.25 µg/mL
same,"Minimum Inhibitory Concentration, WT","S. pneumoniae D39 WT; 2-fold broth dilution, Todd-Hewitt medium, 37°C, 15 h, two to four biological replicates, each technical duplicates",0.25 µg/mL
same,Fold sensitivity diplayed by the KO strains,S. pneumoniae D39 WT; KO strains versus WT MIC,1
same,"MIC, Δhk01",S. pneumoniae R800 Δhk01,0.25 µg/mL
same,"MIC, ΔbceAB",[5],0.25 µg/mL
same,"Minimum Inhibitory Concentration, Δtcs01",S. pneumoniae R6 Δtcs01,0.5 µg/mL
same,"Minimum Inhibitory Concentration, ΔbceAB",S. pneumoniae D39 ΔbceAB,0.25 µg/mL
same,"Minimum Inhibitory Concentration, ΔbceAB",S. pneumoniae R6 ΔbceAB,0.5 µg/mL
same,"MIC, WT",S. pneumoniae R800 WT,0.25 µg/mL
same,"MIC, ΔbceAB-Δhk01-PcomX-hk01",[6],0.25 µg/mL
same,Transcription of the bceAB genes,[7],no upregulation
same,Effect on ATPase activity of BceAB,[8],did not significantly affect
BceAB transporter from S. pneumoniae (Streptococcus pneumoniae D39),Km,[9],1000 µM
same,Km,[10],1300 µM
HNP1: human neutrophil defensin HNP1; purchased from Vivitide,Resistance promoted by BceAB,[11],does not promote resistance
